According to ChEMBL document CHEMBL5346933, “Design and synthesis of novel arylurea derivatives of aryloxy(1-phenylpropyl) alicyclic diamines with antimicrobial activity against multidrug-resistant Gram-positive bacteria” (Eur J Med Chem, 2023):
Converted amounts (≈) assume the structure as drawn. The source made the active and inactive calls. The calls are words filed in the database; no cut-off is given here.

Tests used:
[1] = Cytotoxicity against human BJ cells assessed as cell viability at 25 ug/ml incubated for 24 hrs by MTT assay; format: toxicity, cell-based; conditions: at 25 µg/mL, read-out: Activity
[2] = test system: Cell membrane; test: Induction of cell membrane depolarization in vancomycin-resistant Enterococcus faecium clinical strain assessed as bacterial cells with polarized membrane potential at 2XMIC incubated for 25 to 30 mins by DiOC2(3) probe based flow cytometry (reference value: 96.8%); format: subcellular; conditions: time 25-30 min
[3] = test system: Cell membrane; test: Induction of cell membrane depolarization in methicillin-resistant Staphylococcus aureus 19449 assessed as bacterial cells with depolarized membrane potential at 2XMIC incubated for 25 to 30 mins by DiOC2(3) probe based flow cytometry (reference value: 0.7%); format: subcellular; conditions: time 25-30 min
[4] = test system: Staphylococcus aureus; test: Bactericidal activity against biofilm producer Staphylococcus aureus RN450 assessed as reduction in colony forming units incubated for 18 hrs in broth followed by culturing on agar plate for 24 hrs; format: functional; conditions: time 42 hrs, read-out: MBC99.9
[5] = test system: Cell membrane; test: Induction of cell membrane depolarization in methicillin-resistant Staphylococcus aureus 19449 assessed as bacterial cells with polarized membrane potential at 2XMIC incubated for 25 to 30 mins by DiOC2(3) probe based flow cytometry (reference value: 98.8%); format: subcellular; conditions: time 25-30 min
[6] = test system: Staphylococcus aureus; test: Ratio of MBC to MIC for methicillin-susceptible Staphylococcus aureus ATCC 25923; format: functional
[7] = test system: Staphylococcus epidermidis; test: Bactericidal activity against linezolid-resistant Staphylococcus epidermidis NIL 4399/19 assessed as reduction in colony forming units incubated for 18 hrs in broth followed by culturing on agar plate for 24 hrs; format: functional; conditions: time 42 hrs, read-out: MBC99.9
[8] = test system: Escherichia coli; test: Antibacterial activity against Escherichia coli ATCC 25922 assessed as inhibition of bacterial growth incubated for 18 hrs by broth microdilution method; format: functional
[9] = test system: Staphylococcus aureus; test: Antibacterial activity against methicillin-susceptible Staphylococcus aureus ATCC 25923 assessed as inhibition of bacterial growth incubated for 18 hrs by broth microdilution method; format: functional
[10] = test system: Staphylococcus epidermidis; test: Bactericidal activity against methicillin- susceptible Staphylococcus epidermidis ATCC 12228 assessed as reduction in colony forming units incubated for 18 hrs in broth followed by culturing on agar plate for 24 hrs; format: functional; conditions: time 42 hrs, read-out: MBC99.9
[11] = test system: Streptococcus pneumoniae; test: Antibacterial activity against Streptococcus pneumoniae ATCC 49619 assessed as inhibition of bacterial growth incubated for 18 hrs by broth microdilution method; format: functional
[12] = test system: Staphylococcus aureus; test: Antibacterial activity against biofilm producer Staphylococcus aureus RN450 assessed as inhibition of bacterial growth incubated for 18 hrs by broth microdilution method; format: functional
[13] = test system: Enterococcus faecium; test: Antibacterial activity against vancomycin-resistant Enterococcus faecium assessed as inhibition of bacterial growth incubated for 18 hrs by broth microdilution method; format: functional
[14] = test system: Staphylococcus epidermidis; test: Antibacterial activity against methicillin-susceptible Staphylococcus epidermidis ATCC 12228 assessed as inhibition of bacterial growth incubated for 18 hrs by broth microdilution method; format: functional
[15] = test system: Enterococcus faecalis; test: Ratio of MBC to MIC for Enterococcus faecalis ATCC 29212; format: functional
[16] = Cytotoxicity against human MRC5 cells assessed as reduction in cell viability incubated for 24 hrs by MTT assay; format: toxicity, cell-based
[17] = test system: Cell membrane; test: Induction of cell membrane depolarization in vancomycin-resistant Enterococcus faecium clinical strain assessed as bacterial cells with depolarized membrane potential at MIC incubated for 25 to 30 mins by DiOC2(3) probe based flow cytometry (reference value: 0.8%); format: subcellular; conditions: time 25-30 min
[18] = test system: Cell membrane; test: Induction of cell membrane depolarization in Staphylococcus aureus Newman assessed as bacterial cells with polarized membrane potential at MIC incubated for 25 to 30 mins by DiOC2(3) probe based flow cytometry (reference value: 94.3%); format: subcellular; conditions: time 25-30 min
[19] = test system: Staphylococcus aureus; test: Antibacterial activity against vancomycin-intermediate Staphylococcus aureus ATCC 700699 assessed as inhibition of bacterial growth incubated for 18 hrs by broth microdilution method; format: functional
[20] = test system: Cell membrane; test: Induction of cell membrane depolarization in vancomycin-resistant Enterococcus faecium clinical strain assessed as bacterial cells with depolarized membrane potential at 4 times MIC incubated for 25 to 30 mins by DiOC2(3) probe based flow cytometry (reference value: 0.8%); format: subcellular; conditions: time 25-30 min
[21] = test system: Enterococcus faecalis; test: Antibacterial activity against Enterococcus faecalis ATCC 29212 assessed as inhibition of bacterial growth measured for 18 hrs by OD600 based analysis; format: functional, organism-based
[22] = test system: Staphylococcus epidermidis; test: Ratio of MBC to MIC for linezolid-resistant Staphylococcus epidermidis NIL 4399/19; format: functional
[23] = test system: Enterococcus faecalis; test: Bactericidal activity against Enterococcus faecalis ATCC 29212 assessed as reduction in colony forming units incubated for 18 hrs in broth followed by culturing on agar plate for 24 hrs; format: functional; conditions: time 42 hrs, read-out: MBC99.9
[24] = Cytotoxicity against human BJ cells assessed as reduction in cell viability incubated for 24 hrs by MTT assay; format: toxicity, cell-based
[25] = test system: Cell membrane; test: Induction of cell membrane depolarization in methicillin-resistant Staphylococcus aureus 19449 assessed as bacterial cells with depolarized membrane potential at MIC incubated for 25 to 30 mins by DiOC2(3) probe based flow cytometry (reference value: 0.7%); format: subcellular; conditions: time 25-30 min
[26] = Intrinsic clearance in rat liver microsomes at 0.4 mg/ml preincubated for 10 mins followed by NADPH-regenerating system addition for 60 mins and measured per mg of protein by UPLC-MS analysis; format: ADME, Microsome; conditions: time 70 min, read-out: CLH
[27] = test system: Staphylococcus epidermidis; test: Ratio of MBC to MIC for biofilm producer Staphylococcus epidermidis ATCC 35984; format: functional
[28] = test system: Staphylococcus aureus; test: Bactericidal activity against methicillin-resistant Staphylococcus aureus clinical strain 19449 assessed as reduction in colony forming units incubated for 18 hrs in broth followed by culturing on agar plate for 24 hrs; format: functional; conditions: time 42 hrs, read-out: MBC99.9
[29] = test system: Staphylococcus epidermidis; test: Ratio of MBC to MIC for methicillin-susceptible Staphylococcus epidermidis ATCC 12228; format: functional
[30] = test system: Enterococcus faecium; test: Bactericidal activity against vancomycin-resistant Enterococcus faecium clinical strain assessed as reduction in colony forming units incubated for 18 hrs in broth followed by culturing on agar plate for 24 hrs; format: functional; conditions: time 42 hrs, read-out: MBC99.9
[31] = test system: Enterococcus faecalis; test: Antibacterial activity against Enterococcus faecalis ATCC 29212 assessed as inhibition of bacterial growth incubated for 18 hrs by broth microdilution method; format: functional
[32] = test system: Enterococcus faecium; test: Antibacterial activity against vancomycin-resistant Enterococcus faecium assessed as inhibition of bacterial growth measured for 18 hrs by OD600 based analysis; format: functional, organism-based

O=C(Nc1cccc(Cl)c1)NC1CCN(CCC(Oc2cccc(C(F)(F)F)c2)c2ccccc2)CC1 (racemic)
viability at 24 h, 25 ug/ml [1]: 97% | Activity [2]: 0.3% | Activity [3]: 96.8% | MBC [4]: 6.25 µg/mL (≈ 11.7 µM) | Activity [5]: 0.1% | Ratio [6]: 4 | MBC [7]: 6.25 µg/mL (≈ 11.7 µM) | MIC [8]: > 12.5 µg/mL | MIC [9]: 3.12 µg/mL (≈ 5.87 µM) | MBC [10]: 3.12 µg/mL (≈ 5.87 µM) | MIC [11]: 6.25 µg/mL (≈ 11.7 µM) | MIC [12]: 1.56 µg/mL (≈ 2.93 µM) | MIC [13]: 1.56 µg/mL (≈ 2.93 µM) | MIC [14]: 3.12 µg/mL (≈ 5.87 µM) | Ratio [15]: 4 | IC50 at 24 h [16]: 12.5 µg/mL (≈ 23.5 µM) | Activity [17]: 34.8% | Activity [18]: 0.6% | MIC [19]: 3.12 µg/mL (≈ 5.87 µM) | Activity [20]: 89.3% | Activity [21]: Active | Ratio [22]: 2 | MBC [23]: 6.25 µg/mL (≈ 11.7 µM) | IC50 at 24 h [24]: > 25 µg/mL | Activity [25]: 91.6% | microsomal CLint [26]: 8.94 µL/min/mg | Ratio [27]: 4 | MBC [28]: 3.12 µg/mL (≈ 5.87 µM) | Ratio [29]: 1 | MBC [30]: 6.25 µg/mL (≈ 11.7 µM) | MIC [31]: 1.56 µg/mL (≈ 2.93 µM) | Activity [32]: Active
